Measured values reported in patent US20210290680A1, “METHODS AND COMPOSITIONS FOR MODULATING CELLULAR AGING” (Dorian Therapeutics, Inc., priority 2019, published 2021).

How the values were obtained:
NALM cells = experiment: Re-challenge cytotoxicity assay, CD19.CAR T cells; type: cell-based, human; conditions: after double tumor-challenge, n=3
Protocol: (§1) Primary T cells were activated as described (Example 3), transduced with a lentivirus encoding for either a CD19.CAR or a GD2.CAR co-expressing shUSP16 #1, shUSP16 #2 or a scrambled shRNA (Control). Cells were cultured in IL-2 and sorted between days 6-13 for EGFRt. At day 16 cytotoxicity assays were performed. Briefly, cells were counted and 100,000 T cells (adjusted for EGFR expression) were plated at 1:5 Effector:Target (E:T) ratio. At 72 hours, the mixture of tumor cells and T cells were collected, stained for CD3-PE, CD8-BV510, CD19- or GD2-APC, EGFR-AF488 and Sytox and counted by flow cytometry (MACSQuant, Miltenyi Biotec) (FIGS. 30A and 30B). Counting beads (CountBright Absolute Counting beads, Invitrogen) were added before acquisition and absolute number was calculated as following (number of cell events/number of bead events)×(assigned bead count of the lot (beads/50 ul)/volume of sample (ul))=concentration of sample as cells/ul). NALM cells were used as target cells for CD19.CAR T cells and CHLA-55 cells were used as target for GD2.CAR T cells. Three different primary T cell cultures were tested for CD19 and GD2 CAR.
(§2) At day 16, regular cytotoxicity assays were also performed (Example 22). Three days post-antigen stimulation, CD19.CAR T cells were stained for EGFR-AF488 (R&D), CD3-PE, CD8-BV510, PD-1-Allophycocyanin and Lag-3 and CTLA4 (Biolegend) and acquired by MACSQuant (Miltenyi Biotec). The co-cultures we also re-challenged with the addition of fresh tumor cells. T cell killing and expansion upon double tumor-challenge was assessed after three days.

CHLA-55 cells = experiment: Re-challenge cytotoxicity assay, GD2.CAR T cells; type: cell-based, human; conditions: after double tumor-challenge, n=3
Protocol: as §1, §2

NALM leukemia cell line = experiment: In vivo anti-tumor activity of CD19.CAR T cells (circulating Gaussia luciferase); conditions: immunocompromised mice, one million CD19.CAR T cells via tail vein, n=4-6
Protocol: Primary T cells were activated and prepared, as in Example 26. NALM leukemia cell line was transduced with Gaussia Luciferase and one million cells were injected via tail vein at d−4. One million of CD19.CAR T cells were then infused via tail vein at d=0 and mice were weighted, and blood was collected every week (FIG. 38). Tumor growth was monitor by weekly assessment of circulating luciferase. Briefly, blood was collected and subsequently analyzed for luciferase expression using Nanolight Technologies Luciferase detection Kit. Luciferase expression (calculated as GLuc, RLU (Relative Luminescence Unit)) in the blood correlates with tumor engraftment. As NALM cells engraft primarily in the spleen, at the time of sacrifice, the spleens were collected and photographed (FIG. 39B), the size of the spleen directly correlates to the amount of tumor infiltrated in the organ.

USP16 = experiment: qPCR of USP16 expression; type: cell-based, human; conditions: for downregulation of USP16 (Ctrl vs shRNA): primary T cells, day 15
Excerpt: A new set of shRNAs were cloned into the pSIH backbone, where the shRNA expression is driven by the H1 promoter. The vector was also engineered to co-express GFP and Puromycin resistance through a T2A sequence. The new shRNA sequences were: shUSP16 #1 5′-[…]-3′ (SEQ ID NO: 8) and shUSP16 #2 5′-[…]-3′ (SEQ ID NO: 9). Primary T cells were activated as described (Example 3), transduced with a lentivirus encoding either a shUSP16 #1, shUSP16 #2 or a scrambled shRNA (Control) and cells were selected with puromycin at day 6. Between 1 and 1.25×10^6 cells were plated post-puromycin selection with a purity higher than 90% and counted every 2-4 days by Trypan Blue exclusion using Vi-CELL XR cell counter (Beckman Coulter). qPCR was performed to verify downregulation of USP16 expression (FIG. 14A) and the expression of the senescent marker CDKN1A (FIG. 14B) at day 15. Proliferation was measured as fold increased compared to shControl at day 15 post-activation. The experiment was repeated using primary T cells obtained from buffy coats of 3 different healthy donors.
Primary T cells were activated as described (Example 3). At Day 6 post-activation, dynabeads were removed and T cells electroporated using the Neon Transfection System (ThermoFisher) with a 2.5:1 ratio sgRNA:Cas9. The experiment was performed following the protocol optimized for primary T cell by Synthego (CRISPR Editing Human Primary CD4+ T cells with RNPs using Neon Electroporation Protocol, 2018 version). The sgRNA used are the following: gUSP16 #1 5′-[…]-3′ (SEQ ID NO: 10) and gSynthego that comprises 3 different sgRNAs (gRNA-A: 5′-[…] 3′ (SEQ ID NO: 11); gRNA-B: 5′-[…]-3′ (SEQ ID NO: 12); gRNA-C: 5′-[…]-3′ (SEQ ID NO: 13)). Control T cells, identified as Mock, were electroporated but no Cas9:sgRNA mixture was added. […] At day 15 post-activation, cells were stained for CD4-PE, CD8-BV510, CD62L-Allophycocyanin and CD45RA-APC-Cy7 (Biolegend). Stem cell memory T cells (Tscm) were identified as Sytox^−GFP^+CD45RA^+CD62L^+ and graphed as ratio compared to mock cells (FIG. 22). The experiment was repeated using primary T cells obtained from buffy coats of 2 different healthy donors.
Primary T cells were activated as described (Example 3), transduced with a lentivirus encoding for either a CD19.CAR or a GD2.CAR co-expressing shUSP16 #1, shUSP16 #2 or a scrambled shRNA (Control). Cells were cultured in IL-2 and sorted between days 6-13 for EGFRt. Cells were plated post-sorting with a purity higher than 85% and counted every 2-4 days by Trypan Blue exclusion using Vi-CELL XR cell counter. Fifteen days post-activation both CD19.CAR and GD2.CAR T cells were collected, and qPCR was performed to verify downregulation of USP16 expression (FIG. 24) (fold change GD2.CAR (n=3): Control vs shUSP #1: 0.35, p<0.0001, and Control vs shUSP16 #2: 0.2452, p<0.0001, fold change CD19.CAR (n=4): Control vs shUSP #1: 0.2891, p<0.0001, and Control vs shUSP16 #2: 0.2566, p<0.0001). Proliferation was measured as fold increase compared to control cells at day 15 (FIG. 25).

shUSP16 #1: shRNA targeting USP16, 5′-GACTGTAAGACTGACAATAAA-3′ (SEQ ID NO: 8), pSIH backbone or co-expressed in CAR plasmid
T cell number (NALM cells): 192643 | residual tumor cells (NALM) (NALM cells): 282761 | CHLA-55 residual cells (CHLA-55 cells): 436500 | T cell number (CHLA-55 cells): 404709 | NALM engraftment, luciferase expression in blood (GLuc) (NALM leukemia cell line): 38603 RLU | USP16 expression, fold change vs Control (USP16; CD19.CAR T cells, day 15, n=4): 0.2891 | USP16 expression, fold change vs Control (USP16; GD2.CAR T cells, day 15, n=3): 0.35 | downregulation of USP16 (Ctrl vs shRNA) (USP16): 56%

shUSP16 #2: shRNA targeting USP16, 5′-TATATCAGTTCACCCGTAAT-3′ (SEQ ID NO: 9), pSIH backbone or co-expressed in CAR plasmid
T cell number (NALM cells): 204291 | residual tumor cells (NALM) (NALM cells): 160874 | CHLA-55 residual cells (CHLA-55 cells): 330610 | T cell number (CHLA-55 cells): 722634 | NALM engraftment, luciferase expression in blood (GLuc) (NALM leukemia cell line): 5169 RLU | USP16 expression, fold change vs Control (USP16; CD19.CAR T cells, day 15, n=4): 0.2566 | USP16 expression, fold change vs Control (USP16; GD2.CAR T cells, day 15, n=3): 0.2452 | downregulation of USP16 (Ctrl vs shRNA) (USP16): 53%
